pIC50: −log10 of the molar value. Where two headings read alike, the source gives them in different places.
Assays:
DU145 (prostate cancer) = test: Effect of compounds on tumor cell lines (assay of Latham et al.), DU145; format: cell-based; conditions: DU145 cells, examined 96 hours after treatment, read-out: DU 145 potency (IC50)
Outline: (§1)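 K562 or DU145 cells plated at 2.5×10^4 cells/well, treated 24 h later with compound in DMSO at 1 μM to 100 μM (0.1 μM to 100 μM for one compound). Activity judged by microscopic observation after 96 h; where needed, viable cells counted by trypan blue exclusion.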

[1] = test system: K562 (chronic myelogenous leukaemia); test: Effect of compounds on tumor cell lines (assay of Latham et al.), K562; format: cell-based; conditions: K562 cells, examined 96 hours after treatment, read-out: K 562 potency (IC50)
Outline: as §1

[2] = Homo sapiens, DU-145, Table 4, 1 μM to 100 μM in DMSO
[3] = Homo sapiens, Table 4, 1 μM to 100 μM in DMSO
[4] = Table 4, 1 μM to 100 μM in DMSO

melting point	pIC50 (DU145 (prostate cancer); [2])	pIC50 [1, 3]	SMILES	further results
128 to 130 °C	–	–	O=C(/C(=C\c1ccc(I)cc1)Sc1ccc(Br)cc1)c1ccc(Br)cc1 [Example 45, (E)-1-(4-bromophenyl)-2-(4-bromophenylthio)-3-(4-Iodophenyl)-prop-2-en-1-one]	pIC50 (DU145 (prostate cancer); Homo sapiens, DU-145, Table 1, 1 μM to 100 μM in DMSO): 5.00 to 6.00; pIC50 ([1]; Homo sapiens, Table 1, 1 μM to 100 μM in DMSO): 5.00 to 6.00
115 to 117 °C	4.60 to 5.00	4.30 to 4.60	Cc1ccc(/C=C(\C(=O)c2ccc(Cl)cc2)S(=O)(=O)Cc2ccc(Cl)cc2Cl)s1 [Example 356]	–
185 to 192 °C	< 4.00	4.30 to 4.60	COc1cc(OC)c(/C=C(\C(=O)c2ccc(Cl)cc2)S(=O)(=O)Cc2ccccc2Cl)c(OC)c1 [Example 357]	–
137 to 148 °C	5.00 to 6.00	5.00 to 6.00	O=C(/C(=C\c1ccccc1OCc1ccccc1)S(=O)(=O)Cc1ccccc1Cl)c1ccc(Cl)cc1 [Example 358]	–
133 to 138 °C	< 4.00	4.00 to 4.30	COc1cc(/C=C(\C(=O)c2ccc(Cl)cc2)S(=O)(=O)Cc2ccccc2Cl)cc(OC)c1 [Example 359]	–
186 to 192 °C	4.30 to 4.60	4.30 to 4.60	O=C(/C(=C\c1ccc(Br)cc1)S(=O)(=O)Cc1ccccc1Cl)c1ccc(Cl)cc1 [Example 360]	–
123 to 128 °C	4.60 to 5.00	4.60 to 5.00	CCOc1ccc(/C=C(\C(=O)c2ccc(Cl)cc2)S(=O)(=O)Cc2ccccc2Cl)cc1OC [Example 361]	–
222 to 226 °C	–	–	O=C(/C(=C\c1ccc(O)c([N+](=O)[O-])c1)S(=O)(=O)Cc1ccccc1Cl)c1ccc(Cl)cc1 [Example 362]	–
195 to 210 °C	–	–	COc1ccc(/C=C(\C(=O)c2ccc(Cl)cc2)S(=O)(=O)Cc2ccccc2Cl)cc1 [Example 363]	–
154 to 157 °C	5.00 to 6.00	5.00 to 6.00	COc1ccccc1/C=C(\C(=O)c1ccc(Cl)cc1)S(=O)(=O)Cc1ccc(Cl)c(Cl)c1 [Example 364]	–
195 to 198 °C	4.60 to 5.00	4.60 to 5.00	O=C(/C(=C\c1ccc(O)cc1)S(=O)(=O)Cc1ccc(Cl)c(Cl)c1)c1ccc(Cl)cc1 [Example 366]	–
146 to 148 °C	5.00 to 6.00	5.00 to 6.00	COc1ccc(C(=O)/C(=C\c2ccc(Br)cc2)S(=O)(=O)Cc2ccc(Br)cc2)cc1 [Example 371]	–
–	–	–	O=C(/C(=C\c1ccc(O)c([N+](=O)[O-])c1)S(=O)(=O)Cc1ccc(Br)cc1)c1c(F)c(F)c(F)c(F)c1F [Example 373]	pIC50 (DU145 (prostate cancer); [4]): 4.00 to 4.30; pIC50 [1, 4]: 4.00 to 4.30
110 to 112 °C	4.60 to 5.00	5.00 to 6.00	O=C(/C(=C\c1ccc(O)c([N+](=O)[O-])c1)S(=O)(=O)Cc1ccc(Br)cc1)c1ccc(Br)cc1 [Example 374]	–
148 to 151 °C	4.60 to 5.00	5.00 to 6.00	COc1ccc(/C=C(\C(=O)c2ccc(Cl)cc2)S(=O)(=O)Cc2ccc(Cl)cc2)c(OC)c1OC [Example 375]	–
181 to 188 °C	5.00 to 6.00	5.00 to 6.00	O=C(/C(=C\c1cc(Cl)cc(Cl)c1Cl)S(=O)(=O)Cc1ccc(Cl)cc1)c1ccc(Br)cc1 [Example 376]	–
232 to 236 °C	< 4.00	< 4.00	O=C(/C(=C\c1c(O)cc(O)cc1O)S(=O)(=O)Cc1ccc(Cl)cc1)c1ccc(Cl)cc1 [Example 377]	–
207 to 210 °C	4.30 to 4.60	4.30 to 4.60	COc1cc(OC)c(/C=C(\C(=O)c2ccc(Br)cc2)S(=O)(=O)Cc2ccc(Cl)cc2)c(OC)c1 [Example 378]	–
62 to 64 °C	4.60 to 5.00	4.60 to 5.00	COc1cc(OC)c(/C=C(\C(=O)c2ccc([N+](=O)[O-])cc2)S(=O)(=O)Cc2ccc(Cl)cc2)c(OC)c1 [Example 379]	–
129 to 136 °C	4.60 to 5.00	4.60 to 5.00	Cc1ccc(C)c(/C=C(\C(=O)c2ccc(Cl)cc2)S(=O)(=O)Cc2ccc(Cl)cc2)c1 [Example 380]	–
136 to 142 °C	4.60 to 5.00	5.00 to 6.00	O=C(/C(=C\c1ccccc1OCc1ccccc1)S(=O)(=O)Cc1ccc(Cl)cc1)c1ccc(Br)cc1 [Example 381]	–
72 to 78 °C	4.60 to 5.00	4.60 to 5.00	COc1ccc(/C=C(\C(=O)c2ccc(Br)cc2)S(=O)(=O)Cc2ccc(Cl)cc2)c(O)c1 [Example 382]	–
135 to 142 °C	4.30 to 4.60	4.30 to 4.60	COc1ccccc1/C=C(\C(=O)c1ccc(Cl)cc1)S(=O)(=O)Cc1ccc(Cl)cc1 [Example 383]	–

melting point	pIC50 (DU145 (prostate cancer); [2])	pIC50 [1, 3]	SMILES	further results
136 to 141 °C	4.60 to 5.00	4.60 to 5.00	COc1ccccc1/C=C(\C(=O)c1ccc([N+](=O)[O-])cc1)S(=O)(=O)Cc1ccc(Cl)cc1 [Example 384]	–
146 to 152 °C	5.00 to 6.00	5.00 to 6.00	Cc1cc(C)cc(/C=C(\C(=O)c2ccc(Cl)cc2)S(=O)(=O)Cc2ccc(Cl)cc2)c1 [Example 385]	–
134 to 139 °C	4.60 to 5.00	4.60 to 5.00	CCOc1cc(/C=C(\C(=O)c2ccc(Cl)cc2)S(=O)(=O)Cc2ccc(Cl)cc2)ccc1O [Example 386]	–
128 to 136 °C	4.00 to 4.30	4.30 to 4.60	COc1ccsc1/C=C(\C(=O)c1ccc(Br)cc1)S(=O)(=O)Cc1ccc(Cl)cc1 [Example 387]	–
130 to 139 °C	4.30 to 4.60	4.30 to 4.60	Cc1ccsc1/C=C(\C(=O)c1ccc(Cl)cc1)S(=O)(=O)Cc1ccc(Cl)cc1 [Example 388]	–
174 to 179 °C	5.00 to 6.00	5.00 to 6.00	Cc1ccsc1/C=C(\C(=O)c1ccc([N+](=O)[O-])cc1)S(=O)(=O)Cc1ccc(Cl)cc1 [Example 389]	–
176 to 180 °C	–	–	CN(C)c1ccc(/C=C(\C(=O)c2ccc(C(=O)O)cc2)S(=O)(=O)Cc2ccc(Cl)cc2)cc1 [Example 390]	–
91 to 99 °C	5.00 to 6.00	5.00 to 6.00	O=C(/C(=C\c1ccc(OCc2ccccc2)cc1)S(=O)(=O)Cc1ccc(Cl)cc1)c1ccc(Cl)cc1 [Example 391]	–
100 to 103 °C	4.60 to 5.00	4.60 to 5.00	O=C(/C(=C\c1ccc(Br)cc1)S(=O)(=O)Cc1ccc(Cl)cc1)c1ccc(Cl)cc1 [Example 392]	–
–	–	–	O=C(/C(=C\c1ccc(O)c([N+](=O)[O-])c1)S(=O)(=O)Cc1ccc(Cl)cc1)c1ccc(Cl)cc1 [Example 393]	pIC50 (DU145 (prostate cancer); [4]): 4.30 to 4.60; pIC50 [1, 4]: 4.30 to 4.60
94 to 108 °C	4.60 to 5.00	4.60 to 5.00	CSc1ccc(/C=C(\C(=O)c2ccc(Cl)cc2)S(=O)(=O)Cc2ccc(Cl)cc2)cc1 [Example 394]	–
152 to 155 °C	4.30 to 4.60	4.60 to 5.00	COc1ccc(/C=C(\C(=O)c2ccc(Br)cc2)S(=O)(=O)Cc2ccc(Cl)cc2)cc1 [Example 395]	–
139 to 145 °C	–	–	O=C(/C(=C\c1ccccc1OCc1ccccc1)S(=O)(=O)Cc1ccc(F)cc1)c1ccc(Cl)cc1 [Example 402]	–
145 to 151 °C	–	–	COc1ccccc1/C=C(\C(=O)c1ccc(Br)cc1)S(=O)(=O)Cc1ccc(F)cc1 [Example 404]	–
–	< 4.00	4.00 to 4.30	O=C(/C(=C\c1ccc(Br)cc1)S(=O)(=O)Cc1ccc(F)cc1)c1ccc(Cl)cc1 [Example 410]	–
188 to 192 °C	–	–	O=C(/C(=C\c1ccc(O)cc1)S(=O)(=O)Cc1ccc(F)cc1)c1ccc(Br)cc1 [Example 413]	–
121 to 123 °C	–	–	COc1ccc(/C=C(\C(=O)c2ccc(Br)cc2)S(=O)(=O)Cc2ccc(F)cc2)cc1 [Example 415]	–
156 to 161 °C	–	–	Cc1ccc(/C=C(\C(=O)c2ccc(Br)cc2)S(=O)(=O)Cc2ccc(F)cc2)s1 [Example 416]	–
116 to 120 °C	–	–	Cc1ccc(/C=C(\C(=O)c2ccc(Cl)cc2)S(=O)(=O)Cc2ccc(F)cc2)s1 [Example 417]	–
60 to 62 °C	–	–	COc1ccc(CS(=O)(=O)/C(=C/c2c(OC)cc(OC)cc2OC)C(=O)c2ccc(OC)cc2)cc1 [Example 422, (E)-1-(4-methoxyphenyl)-2-(4-methoxybenzylsulfonyl)-3-(2,4,6-trimethoxyphenyl)-prop-2-en-1-one]	–
–	4.60 to 5.00	4.60 to 5.00	COc1ccccc1/C=C(\C(=O)c1ccc(Cl)cc1)S(=O)(=O)Cc1ccc(C)cc1 [Example 428]	–
–	4.60 to 5.00	4.60 to 5.00	CSc1ccc(/C=C(\C(=O)c2ccc(Br)cc2)S(=O)(=O)Cc2ccc(C)cc2)cc1 [Example 436]	–
–	–	–	COC(=O)c1ccc(C(=O)/C(=C\c2ccc(F)c([N+](=O)[O-])c2)SCc2ccc(Br)cc2)cc1 [Example 441, (E)-methyl-4-(2-(4-bromobenzylthio)-3-(4-fluoro-3-nitrophenyl)acryloyl)benzoate]	pIC50 (DU145 (prostate cancer); Homo sapiens, DU-145, Table 5, 0.1 μM to 100 μM in DMSO): ≥ 6.00; pIC50 ([1]; Homo sapiens, Table 5, 0.1 μM to 100 μM in DMSO): ≥ 6.00

Source: patent publication US8808702B2, “Sulfide, sulfoxide and sulfone chalcone analogues, derivatives thereof and therapeutic uses thereof” (Temple University-of the Commonwealth System of Higher …, priority 2006, dated 2014)
